Patent US20230081390A1, “INHIBITORS OF RAF KINASES” (Kinnate Biopharma Inc., priority 2019, published 2023)

Target: human RAF1 (Homo sapiens, UniProt P04049)
Assay: Protein kinase assay (33P-ATP filter binding), human RAF1, 10-dose IC50
Type: biochemical
Conditions: MEK1 (K97R) substrate 3 micromolar, ATP 10 micromolar, read-out: RAF-1 IC50
Summary of the method: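 Human RAF1 phosphorylated human MEK1 (K97R) substrate at 3 µM with 10 µM ATP (³³P), in pH 7.5 HEPES buffer with MgCl2, EGTA, Brij35, BSA, Na3VO4 and DTT. Reactions ran for 2 hr at room temperature with P81 filter capture.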

Chain of human RAF1 (P04049 whole entry): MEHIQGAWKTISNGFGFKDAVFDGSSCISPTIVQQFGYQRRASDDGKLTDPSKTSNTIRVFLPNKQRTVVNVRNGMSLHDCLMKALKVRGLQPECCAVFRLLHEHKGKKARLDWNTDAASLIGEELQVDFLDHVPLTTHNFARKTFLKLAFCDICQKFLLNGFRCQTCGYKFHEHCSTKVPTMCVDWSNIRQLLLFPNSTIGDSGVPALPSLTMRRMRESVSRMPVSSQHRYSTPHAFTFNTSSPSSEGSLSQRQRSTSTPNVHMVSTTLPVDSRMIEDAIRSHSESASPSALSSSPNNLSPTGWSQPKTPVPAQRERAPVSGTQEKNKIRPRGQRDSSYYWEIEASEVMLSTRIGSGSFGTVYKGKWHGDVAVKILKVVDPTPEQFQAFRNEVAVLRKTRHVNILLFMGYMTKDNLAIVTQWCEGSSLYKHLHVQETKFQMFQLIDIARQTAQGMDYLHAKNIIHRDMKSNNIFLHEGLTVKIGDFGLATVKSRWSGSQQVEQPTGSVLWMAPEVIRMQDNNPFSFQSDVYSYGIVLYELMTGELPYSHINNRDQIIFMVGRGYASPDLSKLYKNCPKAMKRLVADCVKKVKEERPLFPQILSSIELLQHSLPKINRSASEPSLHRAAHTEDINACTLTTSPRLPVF

SMILES | IC50 [nM]
Cc1ccc(NC(=O)Nc2cnn(C(F)(F)F)c2)cc1-c1cnc(OC2CCOCC2)c(N2CCOCC2)c1 [Example 130, 1-[4-methyl-3-[5-(morpholin-4-yl)-6-(oxan-4-yloxy)pyridin-3-yl]phenyl]-3-[1-(trifluoromethyl)pyrazol-4-yl]urea] | < 10
Cc1ccc(NC(=O)Nc2cnn(C(C)C)c2)cc1-c1cc(OCCO)nc(N2CCOCC2)c1 [Example 139, 1-[3-[2-(2-hydroxyethoxy)-6-(morpholin-4-yl)pyridin-4-yl]-4-methylphenyl]-3-(1-isopropylpyrazol-4-yl)urea] | < 10
Cc1ccc(NC(=O)N2CC[C@@H](OC(F)(F)F)C2)cc1-c1cc(OCC(C)(C)O)nc(N2CCOCC2)c1 [Example 149, (3R)-N-[3-[2-(2-hydroxy-2-methylpropoxy)-6-(morpholin-4-yl)pyridin-4-yl]-4-methylphenyl]-3-(trifluoromethoxy)pyrrolidine-1-carboxamide] | < 10
Cc1ccc(NC(=O)Nc2cnn(C(F)(F)F)c2)cc1-c1cc(OCCO)nc(N2CCOCC2)c1 [Example 125, 1-[3-[2-(2-hydroxyethoxy)-6-(morpholin-4-yl)pyridin-4-yl]-4-methylphenyl]-3-[1-(trifluoromethyl)pyrazol-4-yl]urea] | < 10
Cc1ccc(NC(=O)N2CCC(CC(F)(F)F)C2)cc1-c1cc(OCCCO)nc(N2CCOCC2)c1 (stereo not drawn) [Example 189, N-(3-(2-(3-hydroxypropoxy)-6-morpholinopyridin-4-yl)-4-methylphenyl)-3-(2,2,2-trifluoroethyl)pyrrolidine-1-carboxamide] | < 10
Cc1ccc(NC(=O)N2CC[C@@H](CC(F)(F)F)C2)cc1-c1cc(O[C@@H]2CC[C@@H](O)C2)nc(N2CCOCC2)c1 [Example 208, (3S)-N-[3-(2-[[(1R,3R)-3-hydroxycyclopentyl]oxy]-6-(morpholin-4-yl)pyridin-4-yl)-4-methylphenyl]-3-(2,2,2-trifluoroethyl)pyrrolidine-1-carboxamide] | < 10
Cc1ccc(NC(=O)N2CC[C@@H](CC(F)(F)F)C2)cc1-c1cc(OC2CC(O)C2)nc(N2CCOCC2)c1 (stereo partly drawn) [Example 206, (3S)-N-[3-[2-(3-hydroxycyclobutoxy)-6-(morpholin-4-yl)pyridin-4-yl]-4-methylphenyl]-3-(2,2,2-trifluoroethyl)pyrrolidine-1-carboxamide] | < 10
Cc1ccc(NC(=O)N2CC[C@H](OC(F)F)C2)cc1-c1cc(O[C@H](C)[C@@H](C)O)nc(N2CCOCC2)c1 [Example 174, (S)-3-(difluoromethoxy)-N-(3-(2-(((2R,3R)-3-hydroxybutan-2-yl)oxy)-6-morpholinopyridin-4-yl)-4-methylphenyl)pyrrolidine-1-carboxamide] | < 10
Cc1ccc(NC(=O)N2CC[C@@H](CC(F)(F)F)C2)cc1-c1cc(OCC2(O)COC2)nc(N2CCOCC2)c1 [Example 224, (3S)-N-(3-[2-[(3-hydroxyoxetan-3-yl)methoxy]-6-(morpholin-4-yl)pyridin-4-yl]-4-methylphenyl)-3-(2,2,2-trifluoroethyl)pyrrolidine-1-carboxamide] | < 10
Cc1ccc(NC(=O)N2CC[C@H](OC(F)(F)F)C2)cc1-c1cc(OC[C@H](C)O)nc(N2CCOCC2)c1 [Example 150, (3S)-N-(3-[2-[(2S)-2-hydroxypropoxy]-6-(morpholin-4-yl)pyridin-4-yl]-4-methylphenyl)-3-(trifluoromethoxy)pyrrolidine-- carboxamide] | < 10
Cc1cc(F)c(NC(=O)N2CC3(C(F)(F)F)CC2CO3)cc1-c1cc(OCCO)nc(N2CCOCC2)c1 (stereo not drawn) [Example 107, N-[2-fluoro-5-[2-(2-hydroxyethoxy)-6-(morpholin-4-yl)pyridin-4-yl]-4-methylphenyl]-1-(trifluoromethyl)-2-oxa-5-azabicyclo[2.2.1]heptane-5-carboxamide] | < 10
Cc1ccc(NC(=O)N2CC[C@H](OC(F)(F)F)C2)cc1-c1cc(OCC(C)O)nc(N2CCOCC2)c1 (stereo in doubt) [Example 152, (3S)-N-(3-[2-[(2R)-2-hydroxypropoxy]-6-(morpholin-4-yl)pyridin-4-yl]-4-methylphenyl)-3-(trifluoromethoxy)pyrrolidine-1-carboxamide] | < 10
Cc1cc(F)c(NC(=O)N2CCCCC(F)(F)C2)cc1-c1cc(OCCO)nc(N2CCOCC2)c1 [Example 46, 3,3-difluoro-N-[2-fluoro-5-[2-(2-hydroxyethoxy)-6-(morpholin-4-yl)pyridin-4-yl]-4-methylphenyl]azepane-1-carboxamide] | 10 to 100
Cc1ccc(NC(=O)N2CC[C@@H](CC(F)(F)F)C2)cc1-c1cc(O[C@H]2CCC(F)(F)C2)nc(N2CCOCC2)c1 [Example 220, (3S)-N-[3-(2-[[(1S)-3,3-difluorocyclopentyl]oxy]-6-(morpholin-4-yl)pyridin-4-yl)-4-methylphenyl]-3-(2,2,2-trifluoroethyl)pyrrolidine-1-carboxamide] | < 10
Cc1ccc(NC(=O)N2CC[C@@H](CC(F)(F)F)C2)cc1-c1cc(OCC2(O)CC2)nc(N2CCOCC2)c1 [Example 218, (3S)-N-(3-[2-[(1-hydroxycyclopropyl)methoxy]-6-(morpholin-4-yl)pyridin-4-yl]-4-methylphenyl)-3-(2,2,2-trifluoroethyl)pyrrolidine-1-carboxamide] | < 10
Cc1ccc(NC(=O)N2CC=C(CC(F)(F)F)C2)cc1-c1cc(OCC(C)(C)O)nc(N2CCOCC2)c1 [Example 216, N-[3-[2-(2-hydroxy-2-methylpropoxy)-6-(morpholin-4-yl)pyridin-4-yl]-4-methylphenyl]-3-(2,2,2-trifluoroethyl)-2,5-dihydropyrrole-1-carboxamide] | < 10
Cc1ccc(NC(=O)n2ccc(C(C)(C)C)c2)cc1-c1cc(OCCO)nc(N2CCOCC2)c1 [Example 173, 3-(tert-butyl)-N-(3-(2-(2-hydroxyethoxy)-6-morpholinopyridin-4-yl)-4-methylphenyl)-1H-pyrrole-1-carboxamide] | < 10
Cc1ccc(NC(=O)N2CC[C@@H](C(F)(F)F)C2)cc1-c1cnc(OC2CCOCC2)c(N2CCOCC2)c1 (single isomer, unassigned) [Example 119] | < 10
Cc1cc(F)c(NC(=O)N2CCC(C)(C)C2)cc1-c1cc(OCCO)nc(N2CCOCC2)c1 [Example 19, N-[2-fluoro-5-[2-(2-hydroxyethoxy)-6-(morpholin-4-yl)pyridin-4-yl]-4-methylphenyl]-3,3-dimethylpyrrolidine-1-carboxamide] | < 10
Cc1cc(F)c(NC(=O)N2CC[C@@H](CC(F)(F)F)C2)cc1-c1cc(O[C@H](C)CO)nc(N2CCOCC2)c1 (single isomer, unassigned) [Example 182] | < 10

Results, then the molecule that gave them:

IC50 [nM] | SMILES
< 10 | Cc1cc(F)c(NC(=O)N2CC[C@@H](OC(F)(F)F)C2)cc1-c1cc(OCCO)nc(N2CCOCC2)c1 (single isomer, unassigned) [Example 77]
< 10 | Cc1cc(F)c(NC(=O)N2CCC(C(C)C(F)(F)F)C2)cc1-c1cc(OCCO)nc(N2CCOCC2)c1 (single isomer, unassigned) [Example 101, N-[2-fluoro-5-[2-(2-hydroxyethoxy)-6-(morpholin-4-yl)pyridin-4-yl]-4-methylphenyl]-3-(1,1,1-trifluoropropan-2-yl)pyrrolidine-1-carboxamide]
< 10 | Cc1cc(F)c(NC(=O)N2CC3CCC3(C(F)(F)F)C2)cc1-c1cc(OCCO)nc(N2CCOCC2)c1 (single isomer, unassigned) [Example 83, N-[2-fluoro-5-[2-(2-hydroxyethoxy)-6-(morpholin-4-yl)pyridin-4-yl]-4-methylphenyl]-1-(trifluoromethyl)-3-azabicyclo[3.2.0]heptane-3-carboxamide]
< 10 | Cc1cc(F)c(NC(=O)N2C[C@H](CF)[C@@H](C(F)(F)F)C2)cc1-c1cc(OCCO)nc(N2CCOCC2)c1 (relative stereo) [Example 39, (trans)-N-[2-fluoro-5-[2-(2-hydroxyethoxy)-6-(morpholin-4-yl)pyridin-4-yl]-4-methylphenyl]-3-(fluoromethyl)-4-(trifluoromethyl) pyrrolidine-1-carboxamide]
< 10 | Cc1cc(F)c(NC(=O)N2CCC3C2C3C(F)(F)F)cc1-c1cc(OCCO)nc(N2CCOCC2)c1 (single isomer, unassigned) [Example 68, N-[2-fluoro-5-[2-(2-hydroxyethoxy)-6-(morpholin-4-yl)pyridin-4-yl]-4-methylphenyl]-6-(trifluoromethyl)-2-azabicyclo[3.1.0]hexane-2-carboxamide]
< 10 | Cc1cc(F)c(NC(=O)N2CCOC(C(F)(F)F)C2C)cc1-c1cc(OCCO)nc(N2CCOCC2)c1 (single isomer, unassigned) [Example 113]
< 10 | Cc1cc(F)c(NC(=O)N2CC(C)C(C(F)(F)F)C2)cc1-c1cc(OCCO)nc(N2CCOCC2)c1 (single isomer, unassigned) [Example 52, N-[2-fluoro-5-[2-(2-hydroxyethoxy)-6-(morpholin-4-yl)pyridin-4-yl]-4-methylphenyl]-3-methyl-4-(trifluoromethyl)pyrrolidine-1-carboxamide]
< 10 | Cc1cc(F)c(NC(=O)N2CC[C@H](OC(F)(F)F)C2)cc1-c1cc(OCCO)nc(N2CCOCC2)c1 (single isomer, unassigned) [Example 78]
1000 to 10000 | Cc1cc(F)c(NC(=O)N2CCCC3C2C3C(F)(F)F)cc1-c1cc(OCCO)nc(N2CCOCC2)c1 (single isomer, unassigned) [Example 108, N-[2-fluoro-5-[2-(2-hydroxyethoxy)-6-(morpholin-4-yl)pyridin-4-yl]-4-methylphenyl]-7-(trifluoromethyl)-2-azabicyclo[4.1.0]heptane-2-carboxamide]
< 10 | Cc1cc(F)c(NC(=O)N2CC/C(=C\C(F)(F)F)C2)cc1-c1cc(OCCO)nc(N2CCOCC2)c1 [Example 93, (E)-N-(2-fluoro-5-(2-(2-hydroxyethoxy)-6-morpholinopyridin-4-yl)-4-methylphenyl)-3-(2,2,2-trifluoroethylidene)pyrrolidine-1-carboxamide]
